Source: patent US10942183B2, “Methods of detecting progesterone receptor and of detecting an expression level” (REGENTS OF THE UNIVERSITY OF MINNESOTA, priority 2017, dated 2021)

Assays:
[1] = tested on: SLC37A2 expression in MCF-7 cells; assay: SLC37A2 mRNA expression by RT-qPCR in MCF-7 cells; assay type: cell-based
Description: (§1) For reverse transcription quantitative polymerase chain reaction (RT-qPCR) assays, 5×10^5 cells/well were plated in six-well dishes, serum starved in modified IMEM for one day before treatment. RNA was extracted using TriPure reagent (Roche, Basel, Switzerland) and cDNA was created using the qScript cDNA SuperMix kit (Quanta Biosciences, Beverly, Mass.). Relative expression levels were determined by qPCR assays performed on a Roche Light-Cycler II using SYBR green master-mix (Roche, Basel, Switzerland). Target gene quantification levels were normalized to the expression of standard housekeeper genes: TBP, ACTB, 18S, and/or GAPDH.
(§2) PR cooperation with one or more RUNX factors may be a mechanism for promoter selection by uniquely modified receptors. The family of RUNX transcription factors (RUNX1, 2, and 3) has complex roles in development and tumor formation with both tumor suppressive and tumor-promoting activities. […] From the GSEA results, SLC37A2, a candidate PR target gene containing multiple RUNX2 binding motifs immediately upstream and within the gene, was identified (FIG. 7A). SLC37A2 is a glucose-6-phosphate transporter expressed in monocytes as well as breast and cervical tissues. […] PR/progestin-dependent regulation of SLC37A2 mRNA expression in multiple cell line models was thus measured. […]

breast cancer = conditions: human, in vivo; cited from earlier work
[2] = tested on: SLC37A2 expression in BT474 cells; assay: SLC37A2 mRNA expression by RT-qPCR in BT474 cells; assay type: cell-based; conditions: unmodified BT474 cells, progestin plus onapristone
Description: as §1, §2

BT474 cells = assay: Mammosphere formation in unmodified HER2+ BT474 cells; assay type: cell-based
Description: (§3) Primary Mammospheres: Adherent cells were washed with PBS and dissociated enzymatically in 0.25% trypsin-EDTA (Invitrogen Corporation, Carlsbad, Calif.). Cells were sieved through a 40-μm sieve (BD FALCON, BD Biosciences, Bedford, Mass.) and analyzed microscopically for single-cellularity. Single cells were plated in ultra-low attachment plates (Corning, Inc., Corning, N.Y.) and cultured in a humid incubator. […] Mammosphere Forming Efficiency (MFE) % was calculated by the number of mammospheres per well/number of cells seeded per well.
(§4) Secondary Mammospheres: Primary mammospheres were collected by centrifugation (5 min, 1000 rpm), and dissociated enzymatically in 0.25% typsin-EDTA. Cells were sieved through a 40-μm tip strainer (Bel-Art SP Scienceware, South Wayne, N.J.) and analyzed microscopically for single-cellularity. […] Mammosphere Forming Efficiency (MFE) % was calculated by the number of mammospheres per well/number of cells seeded per well.
The results were also validated in unmodified ER+/PR+BT474 cells. […] In this “high-kinase” context, PRs are readily phosphorylated on Ser294.

ERK1/2 = assay: Breast tumor explants, phospho-ERK1/2 IHC; assay type: cell-based, human; conditions: progesterone 10 nM, 2 hours
T47D cells = assay: Mammosphere formation in T47D cells; assay type: cell-based, human; conditions: T47D EV, WT, KR or S294A PR-B; estrogen 1 nM, progesterone 10 nM; 14 days
Description: as §3, with “incubator. Cells were grown in a serum-free mammary epithelial basal medium (MEBM; Lonza Group, Basel, Switzerland) containing 1% B27 Supplement (Invitrogen Corporation, Carlsbad, Calif.), 1% penicillin-streptomycin (Invitrogen Corporation, Carlsbad, Calif.), 5 μg/ml insulin (Invitrogen Corporation, Carlsbad, Calif.), 20 ng/ml EGF (Sigma-Aldrich, St. Louis, Mo.), 1 ng/ml hydrocortisone (Sigma-Aldrich, St. Louis, Mo.), and 100 μM β-mercaptoethanol.” for “incubator.”
as §4, with “well. […]” for “well.”

## CC#C[C@]1(O)CC[C@H]2[C@@H]3CCC4=CC(=O)CCC4=C3[C@@H](c3ccc(N(C)C)cc3)C[C@@]21C [mifepristone]
[1]; MCF-7 overexpressing K388R PR, progestin plus mifepristone
  effect on progestin-upregulated SLC37A2 expression: blocked
[1]; cells expressing KR PRs, RU486 treatment alone
  agonist activity on SLC37A2 expression, antiprogestin alone: weak partial agonist activity
Breast cancer
  outcome in clinical trials for breast cancer: has not been successful

## CN(C)c1ccc([C@H]2C[C@]3(C)[C@@H](CC[C@]3(O)CCCO)[C@@H]3CCC4=CC(=O)CCC4=C32)cc1 [onapristone]
[2]
  effect on progestin-stimulated SLC37A2 mRNA expression: effectively blocked
BT474 cells; BT474, onapristone 100 or 1000 nM without or with R5020 10 nM
  effect on basal and progestin-stimulated primary mammosphere formation: effectively reduced both basal and progestin-stimulated primary mammosphere formation
BT474 cells; BT474, onapristone-containing media
  secondary mammosphere formation: failed to form

## CC(=O)[C@H]1CC[C@H]2[C@@H]3CCC4=CC(=O)CC[C@]4(C)[C@H]3CC[C@]12C [progesterone]
ERK1/2
  activation of ERK1/2 (phospho-ERK1/2) in tumor explants: accompanied by activation of ERK1/2
T47D cells
  total numbers of primary and secondary mammospheres on addition of hormone to culture media: had no significant effect on total numbers in any condition
